Measured values from the supplement of paper PMC11061612.

Experiments:
[1] = system: CCRF-CEM (T-Lymphoblastic Leukemia); test: Bliss excess, mean over the matrix (fraction); higher = more synergy
Procedure, shortened: (§1)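 After 24 hours at 37°C and 5% CO2 in 1536-well plates, cells in DMEM/F12 or RPMI plus 10% FBS received two-drug dose matrices for 72 hours. Viability came from CellTiter-Glo 2.0 luminescence and was scaled as inhibition, anchored at 0 by vehicle wells and at 1 by blank wells. Combination Emax is taken as the second-highest inhibition in the matrix, and Bliss excess as the observed combination effect less EA + EB − EA·EB, with EA and EB the single-agent effects.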

[2] = system: HOS (Osteosarcoma); test: as above
Procedure, shortened: as §1

[3] = system: NCI-H2085 (Non-Small Cell Lung Carcinoma); test: as above
Procedure, shortened: as §1

[4] = system: NOS-1 (Osteosarcoma); test: as above
Procedure, shortened: as §1

[5] = system: RC-K8 (B-Cell Non-Hodgkin's Lymphoma); test: as above
Procedure, shortened: as §1

[6] = system: RO82-W-1 (Thyroid Gland Carcinoma); test: as above
Procedure, shortened: as §1

[7] = system: 42-MG-BA (Glioblastoma); test: combination Emax (second highest fraction inhibited in the dose matrix, 72 h); higher = more inhibition; extreme values may be limits of the assay
Procedure, shortened: as §1

[8] = system: AGS (Gastric Carcinoma); test: as above
Procedure, shortened: as §1

[9] = system: HO-1-N-1 (Oral Cavity Carcinoma); test: as above
Procedure, shortened: as §1

[10] = system: HOS (Osteosarcoma); test: as above
Procedure, shortened: as §1

[11] = system: HT-1376 (Bladder Carcinoma); test: as above
Procedure, shortened: as §1

[12] = system: HuP-T4 (Pancreatic Carcinoma); test: as above
Procedure, shortened: as §1

[13] = system: KELLY (Neuroblastoma); test: as above
Procedure, shortened: as §1

[14] = system: KYSE-520 (Esophageal Squamous Cell Carcinoma); test: as above
Procedure, shortened: as §1

[15] = system: LB831-BLC (Bladder Carcinoma); test: as above
Procedure, shortened: as §1

[16] = system: LNCaP-Clone-FGC (Prostate Carcinoma); test: as above
Procedure, shortened: as §1

[17] = system: LU-135 (Small Cell Lung Carcinoma); test: as above
Procedure, shortened: as §1

[18] = system: ME-1 (Acute Myeloid Leukemia); test: as above
Procedure, shortened: as §1

[19] = system: NCI-H2085 (Non-Small Cell Lung Carcinoma); test: as above
Procedure, shortened: as §1

[20] = system: OVCA420 (Ovarian Carcinoma); test: as above
Procedure, shortened: as §1
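Wherever Bliss excess, mean over the matrix is given: after 72 h of two-drug dosing.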

| Structure (SMILES) | Bliss excess [1] | Bliss excess [2] | Bliss excess [3] | Bliss excess [4] | Bliss excess [5] | Bliss excess [6] | combination Emax [7] | combination Emax [8] | combination Emax [9] | combination Emax [10] | combination Emax [11] | combination Emax [12] | combination Emax [13] | combination Emax [14] | combination Emax [15] | combination Emax [16] | combination Emax [17] | combination Emax [18] | combination Emax [19] | combination Emax [20] |
| --- | --- | --- | --- | --- | --- | --- | --- | --- | --- | --- | --- | --- | --- | --- | --- | --- | --- | --- | --- | --- |
| NC1(C(=O)N[C@@H](CCO)c2ccc(Cl)cc2)CCN(c2ncnc3[nH]ccc23)CC1 [Capivasertib] + CC(C)n1c(=O)n(C)c2cnc3cc(F)c(-c4ccc(OCCCN5CCCCC5)nc4)cc3c21 [AZD1390] (first compound max 10 µM, 7x7, partner max 0.3 µM) | -0.0847 | -0.0278 | -0.0564 | -0.0117 | -0.0149 | -0.0236 | 0.686 | 0.444 | 0.435 | 0.41 | 0.144 | 0.128 | 0.256 | 0.467 | 0.493 | 0.956 | 0.267 | 0.237 | 0.258 | 0.21 |
| NC1(C(=O)N[C@@H](CCO)c2ccc(Cl)cc2)CCN(c2ncnc3[nH]ccc23)CC1 [Capivasertib] + CCN(CCO)CCCOc1ccc2c(Nc3cc(CC(=O)Nc4cccc(F)c4)[nH]n3)ncnc2c1 [AZD2811] (first compound max 10 µM, 7x7, partner max 1 µM) | 0.0001 | -0.0107 | -0.0318 | 0.0431 | -0.0114 | -0.0598 | 0.782 | 0.706 | 0.833 | 0.408 | 0.156 | 0.322 | 0.68 | 0.542 | 0.482 | 0.994 | 0.932 | 0.199 | 0.436 | 0.253 |
| CC1(C)CCC(CN2CCN(c3ccc(C(=O)NS(=O)(=O)c4ccc(NCC5CCOCC5)c([N+](=O)[O-])c4)c(Oc4cnc5[nH]ccc5c4)c3)CC2)=C(c2ccc(Cl)cc2)C1 [Venetoclax] + Cn1cnc2c(F)c(Nc3ccc(Br)cc3Cl)c(C(=O)NOCCO)cc21 [Selumetinib] (first compound max 1 µM, 7x7, partner max 3 µM) | 0.0079 | -0.0282 | -0.0271 | -0.0082 | -0.0112 | -0.0552 | 0.215 | 0.656 | 0.205 | 0.089 | 0.163 | 0.352 | 1 | 0.299 | 0.142 | 0.187 | 0.332 | 1 | 0.23 | 0.403 |
| Cn1cnc2c(F)c(Nc3ccc(Br)cc3Cl)c(C(=O)NOCCO)cc21 [Selumetinib] + C[C@@H]1COCCN1C2=NC(=NC(=C2)C3(CC3)[S@](=N)(=O)C)C4=C5C=CNC5=NC=C4 [AZD6738] (first compound max 10 µM, 7x7, partner max 10 µM) | -0.0108 | -0.0613 | -0.0063 | 0.043 | 0.0091 | -0.0242 | 0.53 | 0.986 | 0.763 | 0.529 | 0.467 | 0.568 | 0.952 | 0.534 | 0.278 | 0.673 | 0.753 | 0.469 | 0.35 | 0.562 |
| C[C@@H](c1ccc2nccn2c1)n1nnc2ncc(-c3cnn(C)c3)nc21 [Savolitinib] + Cc1c2c(nn1C)CSCc1cc(n(C)n1)CSc1cc(c3ccccc3c1)OCCCc1c(C(=O)O)n(C)c3c-2c(Cl)ccc13 [AZD5991] (first compound max 1 µM, 7x7, partner max 1 µM) | 0.0088 | -0.0188 | -0.0401 | -0.059 | -0.0257 | -0.0386 | 0.192 | 0.241 | 0.488 | 0.278 | 0.179 | 0.265 | 0.805 | 0.189 | 0.232 | 0.163 | 0.194 | 0.397 | 0.158 | 0.213 |
| Cc1c2c(nn1C)CSCc1cc(n(C)n1)CSc1cc(c3ccccc3c1)OCCCc1c(C(=O)O)n(C)c3c-2c(Cl)ccc13 [AZD5991] + Cn1cnc2c(F)c(Nc3ccc(Br)cc3Cl)c(C(=O)NOCCO)cc21 [Selumetinib] (first compound max 1 µM, 7x7, partner max 3 µM) | 0.0383 | -0.0261 | -0.0344 | 0.0887 | 0.0127 | -0.0528 | 0.988 | 0.964 | 0.919 | 0.229 | 0.272 | 0.957 | 0.737 | 0.355 | 0.392 | 0.129 | 0.22 | 0.906 | 0.631 | 0.498 |
